Measurements as given in patent US12448491B2, “Nano-patterend conductive polymer substrate with improved cell alignment, maturity, adhesion, and connectivity and method for manufacturing same” (priority 2022, dated 2025).

Tests used:
cardiomyocytes = assay: Drug screening on bare and embedded PDMS cantilevers (beat displacement); assay type: cell-based, rat; details: for displacement reduction: 10 nM drug; for contraction returned compared with before drug treatment: 24 h after media replacement
Excerpt: To quantitatively analyze the correlation between cell maturation and drug toxicity, polymer cantilever arrays composed of the bare thin film and the embedded thin film were fabricated.

[1] = test system: neonatal rat ventricular myocytes (NRVMs); assay: Comparison of NRVM and hiPSC-CM in drug test (NRVM); assay type: cell-based; details: animal cells
Excerpt: (§1) There are several similarities and differences in the drug response between animal and human cardiomyocytes.

[2] = test system: human-induced pluripotent stem cell-cardiomyocytes (hiPSC-CMs); assay: Comparison of NRVM and hiPSC-CM in drug test (hiPSC-CM); assay type: cell-based
Excerpt: as §1

[3] = test system: human-induced pluripotent stem cell-cardiomyocytes (hiPSC-CMs); assay: Drug screening for hiPSC-CMs on bare and embedded PDMS; assay type: cell-based; details: after 48 h
Description: Since pre-clinical studies on rats could not completely predict effects on the human heart, human-induced pluripotent stem cell-cardiomyocytes (hiPSC-CMs) had significant advantages over the use of animal models. To further investigate the responses of different drugs on immature and mature cardiomyocytes in human cells, hiPSC-CMs were cultured.

Row | Structure (SMILES) | resistance of cardiomyocytes to the drug (cardiomyocytes; cultured on embedded PDMS, FIGS. 17B and 17C) | tendency of beat frequency and contraction with increasing drug [1] | displacement reduction (cardiomyocytes; bare PDMS cantilever) | displacement reduction (cardiomyocytes; embedded PDMS cantilever) | beating of cardiomyocytes (cardiomyocytes; 1 μM drug, cultured on bare PDMS) | beat rate level compared with the maximum displacement value (cardiomyocytes; 1 μM drug, cultured on embedded PDMS) [%] | contraction returned compared with before drug treatment (cardiomyocytes; bare PDMS cantilever) [%] | contraction returned compared with before drug treatment (cardiomyocytes; embedded PDMS cantilever) [%] | decreased contraction force returned after washing (cardiomyocytes; after washing for 48 h, AgNW-embedded PDMS substrate) [%] | beat behavior after washing (cardiomyocytes; after washing for 48 h, control bare PDMS) | IC50 (cardiomyocytes; cardiomyocytes cultured on bare PDMS thin film) [nM] | IC50 (cardiomyocytes; cardiomyocytes cultured on embedded PDMS thin film) [nM] | IC50 ([2]; (b) of FIG. 20A, NRVM vs hiPSC-CM comparison, cell type of the value not stated) [nM] | tendency of beat frequency and contraction with increasing drug ([2]; human cells) | contraction force returned after replacement of culture ([3]; hiPSC-CMs on bare PDMS) | contraction force returned after replacement of culture ([3]; hiPSC-CMs on embedded PDMS) [%]
1 | Cc1cccc(CCN2CCC(C(=O)c3ccc(NS(C)(=O)=O)cc3)CC2)n1 [E-4031] | enhanced resistance |  |  |  |  |  |  |  |  |  |  |  |  |  |  | 
2 | Cc1ccc2c(c1)C(=O)C1(O)CCN(c3ccccc3)C1=N2 (stereo not shown) [blebbistatin] |  | decrease both beat frequency and contraction force | half displacement reduction | about 10% | no longer beat | 20 | 10 | ≥ 75 | 75 | not returned to the initial state | 174 | 521 | ~1000 | decrease only displacement | did not return | ≥ 70
